{"source": "patent US8318741B2", "about": "“Therapeutic compositions and methods” (The Texas A & M University System, priority 2005, dated 2012)", "key": {"[1]": {"system": "carrageenin induced inflammation", "test": "Carrageenin-induced inflammation (paw edema)", "assay_type": "in vivo, Sprague Dowley rats", "procedure": "Forty female Sprague Dowley rats weighing 164±16 g were used for the experiments. The test and control groups were assigned randomly. Carrageenin (0.1 mL of 1% solution) was injected into the plantar surface of the rat hind paw to induce inflammation. Ten minutes before carrageenin injection, 8 mL of water administered ig. […] The changes in volume of the inflamed edematous foot were measured by the volume of water displaced and recorded at 0, 0.5, 1, 2, 4, and 6 h after the carrageenin injection."}, "guinea pigs": {"system": "guinea pigs", "settings": "known before the Draize test; cited from earlier work"}, "[2]": {"system": "choroidal neovascularization in rat eyes"}, "mice": {"system": "mice", "test": "LD50 determination / acute oral toxicity", "assay_type": "in vivo", "procedure": "LD50 determination: For each dose, 20 mice of either sex, weighing 18-20 g were used to determined the LD50 according to the method of Litchfield & Wilcoxon, J. Pharmacol. Exp. Ther. 96:99-113 (1949). Animals were housed in an animal room at 25° C. and 70% relative humidity. The light cycle was set for 12 h light and 12 h darkness."}, "[3]": {"system": "trabeculectomy failure caused by inflammation", "design": "species or system Dutch Belted rabbits", "settings": "rabbit, in vivo"}, "rat eyes": {"system": "rat eyes", "test": "Retinal function recovery after ischemic insult in rat eyes (ERG b-wave)", "settings": "10 mg/kg ip; for Retinal Function Recovery After Ischemic Insult, Treated: Mean ± SD, N = 6; for Retinal Function Recovery, Net increase (%): treated versus control"}, "[4]": {"system": "ocular hypertensive rabbit eyes", "test": "Choroidal blood flow in ocular hypertensive rabbit eyes (colored microspheres)", "assay_type": "in vivo, New Zealand white rabbits", "settings": "for Choroidal Blood Flow, 30 min / Choroidal Blood Flow, 60 min / Choroidal Blood Flow, 120 min / Choroidal Blood Flow, 180 min / Time after administration over which the action on choroidal blood flow lasted: 50 μl, 1% topically; for Choroidal Blood Flow, 30 min / Choroidal Blood Flow, 60 min / Choroidal Blood Flow, 120 min / Choroidal Blood Flow, 180 min: vehicle controls at 100%, mean ± SD, N = 6"}, "IL-1 induced uveitis": {"system": "IL-1 induced uveitis", "test": "Interleukin-1 induced uveitis", "assay_type": "in vivo, Sprague-Dawley rats", "settings": "20 mg/kg t.i.d."}, "[5]": {"settings": "at various dose levels, AMD rat model"}, "[6]": {"settings": "N-Nitropyrazoles and C-Nitropyrazoles, b-wave recovery after 30 min ischemia"}, "[7]": {"settings": "N-Nitropyrazoles and C-Nitropyrazoles"}, "[8]": {"settings": "N-nitro-azoles and C-nitropyrazoles, 30 min"}, "[9]": {"settings": "N-nitro-azoles and C-nitropyrazoles"}, "[10]": {"settings": "Flavonoids, 30 min after administration"}}, "note": "Read-outs that look alike come from different tables or passages of the source. Marks after values point to notes of the source that are not given here.", "data": [{"smiles": "CC1(Br)CSC(=Nc2ccccc2)N(c2ccccc2)C1=O", "note": "(stereo not shown) [CK-17, 5-bromo-5-methyl-3-phenyl-2-phenylimino-1,3-thiazinan-4-one]", "values": [{"measurement": "Potency relative to aspirin", "setting": "[1]; carrageenin induced inflammation", "value": "about 10 times"}, {"measurement": "Inhibition of carrageenin induced inflammation", "setting": "[1]; ip 3 times before carrageenin", "value": "very effective in inhibiting carrageenin induced inflammation"}, {"measurement": "Skin irritation", "setting": "guinea pigs", "value": "did not produce skin irritation"}, {"measurement": "Effective dose to inhibit CNV formation", "setting": "[2]; rat, in vivo, ip", "value": 30, "unit": "mg/kg"}, {"measurement": "Toxic response", "setting": "mice; 20 g/kg given orally, observed at least 7 days", "value": "did not cause any toxic response"}, {"measurement": "LD50 equivalent for man", "setting": "mice; orally, extrapolated to man", "value": "≥ 1,400 g/70 kg"}, {"measurement": "Delay of trabeculectomy failure", "setting": "[3]", "value": "prolonged the appearance of trabeculectomy failure"}, {"measurement": "Delay of trabeculectomy failure relative to prednisolone", "setting": "[3]", "value": "more effective than prednisolone"}]}, {"smiles": "CC(C)(C)NC[C@@H](O)COc1nsnc1N1CCOCC1", "note": "[D-Timolol, (2R)-1-[(4-morpholin-4-yl-1,2,5-thiadiazol-3-yl)oxy]-3-(tert-butylamino)propan-2-ol]", "values": [{"measurement": "Inhibition of CNV formation", "setting": "[2]; 15 mg/kg i.p. once a day for 4 weeks", "value": "effective in inhibiting some CNV formation but not as potent as hydralazine or guanabenz"}, {"measurement": "Inhibition of CNV formation", "setting": "[2]; [5]", "value": "potent inhibition of CNV formation"}]}, {"smiles": "CONC(=O)c1ccn([N+](=O)[O-])n1", "note": "[DN-6, N-methoxy-1-nitro-1H-pyrazole-3-carboxamide]", "values": [{"measurement": "Retinal Function Recovery After Ischemic Insult, Treated", "setting": "rat eyes; [6]", "value": "64.0 ± 24.9", "unit": "%"}, {"measurement": "Retinal Function Recovery, Net increase (%)", "setting": "rat eyes; [7]", "value": 94.5, "unit": "%"}, {"measurement": "Choroidal Blood Flow, 30 min", "setting": "[4]; [8]", "value": "56.9 ± 17.5^e %"}, {"measurement": "Choroidal Blood Flow, 60 min", "setting": "[4]; [9]", "value": "61.8 ± 20.9", "unit": "%"}, {"measurement": "Choroidal Blood Flow, 120 min", "setting": "[4]; [9]", "value": "88.3 ± 34.1", "unit": "%"}, {"measurement": "Choroidal Blood Flow, 180 min", "setting": "[4]; [9]", "value": "128.5 ± 60.0", "unit": "%"}]}, {"smiles": "O=C(O)c1ccn([N+](=O)[O-])n1", "note": "[DN-7, 1-nitro-1H-pyrazole-3-carboxylic acid]", "values": [{"measurement": "Retinal Function Recovery After Ischemic Insult, Treated", "setting": "rat eyes; [6]", "value": "71.4 ± 20.2", "unit": "%"}, {"measurement": "Retinal Function Recovery, Net increase (%)", "setting": "rat eyes; [7]", "value": 117.0, "unit": "%"}, {"measurement": "Choroidal Blood Flow, 30 min", "setting": "[4]; [8]", "value": "42.0 ± 13.7", "unit": "%"}, {"measurement": "Choroidal Blood Flow, 60 min", "setting": "[4]; [9]", "value": "57.2 ± 3.7", "unit": "%"}, {"measurement": "Choroidal Blood Flow, 120 min", "setting": "[4]; [9]", "value": "80.5 ± 23.1", "unit": "%"}, {"measurement": "Choroidal Blood Flow, 180 min", "setting": "[4]; [9]", "value": "87.3 ± 29.6", "unit": "%"}]}, {"smiles": "NC(N)=NN=Cc1c(Cl)cccc1Cl", "note": "[Guanabenz, 2-[(2,6-dichlorophenyl)methylideneamino]guanidine]", "values": [{"measurement": "Inhibition of CNV formation", "setting": "[2]; 20 mg/kg i.p. once a day for 4 weeks, eight laser lesions", "value": "All eight CNV formations were inhibited"}, {"measurement": "Inhibition of CNV formation", "setting": "[2]; 20 mg/kg i.p. once a day for 4 weeks, eight laser lesions, listed as guanabenz", "value": "inhibition of CNV formation"}, {"measurement": "Inhibition of CNV formation", "setting": "[2]; [5]", "value": "potent inhibition of CNV formation"}]}, {"smiles": "NNc1nncc2ccccc12", "note": "[Hydralazine, phthalazin-1-ylhydrazine]", "values": [{"measurement": "Inhibition of CNV formation", "setting": "[2]; 5 mg/kg i.p. once a day for 4 weeks, eight laser lesions", "value": "four out of eight"}, {"measurement": "Inhibition of CNV formation", "setting": "[2]; 10 mg/kg i.p., eight laser lesions", "value": "inhibited all CNV formation effectively"}, {"measurement": "Inhibition of CNV formation", "setting": "[2]; 10 mg/kg i.p., eight laser lesions, listed as hydralazine", "value": "inhibition of CNV formation"}, {"measurement": "Inhibition of CNV formation", "setting": "[2]; [5]", "value": "potent inhibition of CNV formation"}]}, {"smiles": "O=C1CC(c2ccc(O)cc2)Oc2cc(O)cc(O)c21", "note": "(stereo not shown) [Naringenin, 5,7-dihydroxy-2-(4-hydroxyphenyl)chroman-4-one]", "values": [{"measurement": "Inhibition of CNV formation", "setting": "[2]; 30 mg/kg i.p., eight laser lesions", "value": "marked inhibition of CNV formation"}, {"measurement": "Inhibition of CNV formation", "setting": "[2]; [5]", "value": "potent inhibition of CNV formation"}, {"measurement": "Retinal Function Recovery After Ischemic Insult, Treated", "setting": "rat eyes; Flavonoids, b-wave recovery relative to original level after 30 min ischemia", "value": "54.0 ± 17.8", "unit": "%"}, {"measurement": "Retinal Function Recovery, Net increase (%)", "setting": "rat eyes; Flavonoids", "value": 66.1, "unit": "%"}, {"measurement": "Time after administration over which the action on choroidal blood flow lasted", "setting": "[4]", "value": "at least 2 hrs"}, {"measurement": "Choroidal Blood Flow, 30 min", "setting": "[4]; [10]", "value": "102.5 ± 22.0^e* %"}, {"measurement": "Choroidal Blood Flow, 60 min", "setting": "[4]; Flavonoids", "value": "226.1 ± 55.0", "unit": "%"}, {"measurement": "Choroidal Blood Flow, 120 min", "setting": "[4]; Flavonoids", "value": "124.2 ± 74.5", "unit": "%"}, {"measurement": "Choroidal Blood Flow, 180 min", "setting": "[4]; Flavonoids", "value": "137.4 ± 712", "unit": "%"}, {"measurement": "Onset / latent period of the increase of choroidal blood flow", "setting": "[4]; after drug administration", "value": 30, "unit": "min"}, {"measurement": "Time of peak effect on choroidal blood flow", "setting": "[4]; after drug administration", "value": 60, "unit": "min"}, {"measurement": "Increase of choroidal blood flow at the peak, of the original blood flow", "setting": "[4]; at the peak (60 min after drug administration)", "value": "more than 200%"}]}, {"smiles": "O=c1c(-c2ccc(O)cc2)coc2c([C@@H]3O[C@H](CO)[C@@H](O)[C@H](O)[C@H]3O)c(O)ccc12", "note": "[Puerarin]", "values": [{"measurement": "Retinal Function Recovery After Ischemic Insult, Treated", "setting": "rat eyes; Flavonoids, b-wave recovery relative to original level after 30 min ischemia, 10 mg/kg", "value": "90.0 ± 17.2", "unit": "%"}, {"measurement": "Retinal Function Recovery After Ischemic Insult, Treated", "setting": "rat eyes; Flavonoids, b-wave recovery relative to original level after 30 min ischemia, listed as puerarin, 10 mg/kg", "value": 90, "unit": "%"}, {"measurement": "Retinal Function Recovery, Net increase (%)", "setting": "rat eyes; Flavonoids", "value": 190.3, "unit": "%"}, {"measurement": "Time after administration over which the action on choroidal blood flow lasted", "setting": "[4]", "value": "> 3", "unit": "h"}, {"measurement": "Choroidal Blood Flow, 30 min", "setting": "[4]; [10]", "value": "30.9 ± 7.7", "unit": "%"}, {"measurement": "Choroidal Blood Flow, 60 min", "setting": "[4]; Flavonoids", "value": "114.9 ± 21.5", "unit": "%"}, {"measurement": "Choroidal Blood Flow, 120 min", "setting": "[4]; Flavonoids", "value": "160.8 ± 70.7", "unit": "%"}, {"measurement": "Choroidal Blood Flow, 180 min", "setting": "[4]; Flavonoids", "value": "127.4 ± 65.5", "unit": "%"}, {"measurement": "Start of action on choroidal blood flow", "setting": "[4]; after administration", "value": 1, "unit": "h"}]}, {"smiles": "C[C@]12C=CC(=O)C=C1CC[C@@H]1[C@@H]2[C@@H](O)C[C@@]2(C)[C@H]1CC[C@]2(O)C(=O)CO", "note": "[prednisolone]", "values": [{"measurement": "Minimal dose required to produce inhibition of CNV formation", "setting": "[2]; i.p.", "value": 3, "unit": "mg/kg"}, {"measurement": "Blockade of IL-1 induced uveitis", "setting": "IL-1 induced uveitis", "value": "blocked effectively"}]}]}
